# Test results taken from patent US20240116875A1, “RATIONAL DESIGN, OPTIMIZATION, AND BIOLOGICAL EVALUATION OF NOVEL MEK4 INHIBITORS AGAINST PANCREATIC ADENOCARCINOMA” (NORTHWESTERN UNIVERSITY, priority 2022, published 2024).
# Several values for one entry are separate records, joined by “and”; a condition that tells them apart may be missing. Equal values may be shown once. Read-outs that look alike come from different tables or passages of the source.
# How the values were obtained:
# [1] = biological target: T1, MEK7 (Homo sapiens, UniProt O14733); experiment: ADP-Glo kinase activity assay, MEK7; type: biochemical
# T1 construct: purchased Carna Biosciences
# T1 sequence (O14733 1-419): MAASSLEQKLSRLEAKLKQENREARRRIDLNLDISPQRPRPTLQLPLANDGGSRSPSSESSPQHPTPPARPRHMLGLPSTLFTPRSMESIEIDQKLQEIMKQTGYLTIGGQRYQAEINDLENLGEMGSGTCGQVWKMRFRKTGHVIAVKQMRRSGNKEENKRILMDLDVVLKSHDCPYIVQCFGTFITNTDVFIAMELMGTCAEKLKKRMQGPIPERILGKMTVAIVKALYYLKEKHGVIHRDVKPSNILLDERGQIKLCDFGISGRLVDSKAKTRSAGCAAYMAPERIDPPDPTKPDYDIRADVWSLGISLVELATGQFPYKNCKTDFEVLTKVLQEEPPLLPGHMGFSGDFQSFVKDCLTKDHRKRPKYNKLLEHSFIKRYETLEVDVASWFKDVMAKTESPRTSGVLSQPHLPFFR
# Method: The compounds were then evaluated both in vitro and in a cellular system. When studying kinase inhibitors, there are a multitude of ways to evaluate selectivity across kinases.
# (§1) Procedure for a 5 μL Kinase reaction using the ADP-Glo Kinase Assay Kit from Promega. Staurosporine was used as the positive control, and DMSO as the negative control. Activity of recombinant active full-length human MEK4 (Carna Biosciences) was measured using the ADP-Glo assay with recombinant full-length human p38α (MAPK14). Kinase reactions with MEK7 (Carna Biosciences) were done at the same concentration and amounts with recombinant full-length human p38α (MAPK14).
# (§2) For each well, 4 ng of MEK4 and 600 ng of p38α in Kinase buffer (CST) were used, and 1 μL of this mixture was dispensed per well.
# (§3) Inhibitor was prepared in a DMSO solution. A dose response dilution was done in a 384-well Echo transfer plate. […] This mixture was allowed to incubate for 30 minutes at room temperature.
# (§4) Using a Mantis, 1 μL, of an 8 μM ATP solution was added to each well, and the plate was allowed to incubate for another 1 hour at room temperature. […] All experiments were done in triplicate on the plate, and at least in one separate technical duplicate.
# [2] = biological target: T2, recombinant active full-length human MEK4 (Homo sapiens, UniProt P45985); experiment: ADP-Glo kinase activity assay, MEK4; type: biochemical
# T2 construct: recombinant active full-length human MEK4 (Carna Biosciences); purchased Carna Biosciences
# T2 sequence (P45985 1-399): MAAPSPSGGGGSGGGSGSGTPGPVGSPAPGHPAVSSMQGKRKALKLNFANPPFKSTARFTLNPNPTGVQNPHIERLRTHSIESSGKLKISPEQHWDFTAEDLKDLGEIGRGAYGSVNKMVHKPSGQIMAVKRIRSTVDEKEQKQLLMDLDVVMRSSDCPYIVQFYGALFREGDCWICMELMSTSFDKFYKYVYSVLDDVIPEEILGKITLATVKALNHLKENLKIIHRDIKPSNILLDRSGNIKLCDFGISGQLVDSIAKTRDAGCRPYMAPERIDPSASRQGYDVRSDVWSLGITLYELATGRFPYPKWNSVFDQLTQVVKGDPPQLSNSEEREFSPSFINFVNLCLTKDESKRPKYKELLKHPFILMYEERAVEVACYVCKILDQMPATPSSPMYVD
# Method: as §1, §2, §3, §4
# [3] = headline value per compound, read-out: MEK7 IC50
# [4] = individual experiment, values in brackets, n=3, read-out: MEK7 IC50 of each experiment (IC50±SEM)
# [5] = headline value per compound, read-out: IC50 (MEK4, ADP-Glo)
# [6] = individual experiment, values in brackets, n=3, read-out: IC50 of each experiment (IC50±SEM), MEK4
"IC50 [1, 3] [µM]","IC50 [1, 4]","IC50 [2, 5] [µM]","IC50 [2, 6]",Structure (SMILES)
2.9,1.8 µM and 2.2 µM and 4.8 µM,,,"CC(C)Oc1ccc(NS(=O)(=O)c2cccc(-c3n[nH]c4cc(F)ccc34)c2)cc1 [Compound 15i, 3-(6-fluoro-1H-indazol-3-yl)-N-(4-isopropoxyphenyl)benzenesulfonamide]"
,,> 80,,"Cn1nc(-c2ccc3c(c2)OCO3)c2ccc(F)cc21 [Compound S2, 3-(benzo[d][1,3]dioxol-5-yl)-6-fluoro-1-methyl-1H-indazole]"
,,> 80,,"Fc1ccc2c(-c3ccc4c(c3)OCO4)nn(Cc3ccccc3)c2c1 [Compound S3, 3-(benzo[d][1,3]dioxol-5-yl)-1-benzyl-6-fluoro-1H-indazole]"
8.7,8.1 µM and 9.3 µM,,,"O=S(=O)(NC1CC1)c1ccc(-c2n[nH]c3cc(F)ccc23)cc1 [Compound 13c, N-cyclopropyl-4-(6-fluoro-1H-indazol-3-yl)benzenesulfonamide]"
,,> 80,,"C=CC(=O)Nc1ccccc1-c1n[nH]c2cc(F)ccc12 [Compound 8d, N-(2-(6-fluoro-1H-indazol-3-yl)phenyl)acrylamide]"
6.4,5.6 µM and 7.1 µM,,,"O=S(=O)(Nc1cccc(-c2n[nH]c3cc(F)ccc23)c1)C1CC1 [Compound 12c, N-(3-(6-fluoro-1H-indazol-3-yl)phenyl)cyclopropanesulfonamide]"
,,2.7,1.6 µM and 3.7 µM,"Cc1ccc2c(-c3ccc(S(N)(=O)=O)cc3)n[nH]c2c1 [Compound S4, 4-(6-methyl-1H-indazol-3-yl)benzenesulfonamide]"
,,> 80,,"CCC(=O)Nc1ccccc1-c1n[nH]c2cc(F)ccc12 [Compound 8c, N-(2-(6-fluoro-1H-indazol-3-yl)phenyl)propionamide]"
,,3.7,2.2 µM and 5.2 µM,"NS(=O)(=O)c1ccc(-c2n[nH]c3cc(C(F)(F)F)ccc23)cc1 [Compound S5, 4-(6-(trifluoromethyl)-1H-indazol-3-yl)benzenesulfonanamide]"
1.3,0.94 µM and 1.6 µM,,,"O=S(=O)(Nc1cccc(-c2n[nH]c3cc(F)ccc23)c1)c1cccnc1 [Compound 12a, N-(3-(6-fluoro-1H-indazol-3-yl)phenyl)pyridine-3-sulfonamide]"
2.7,1.9 µM and 3.5 µM,,,"O=S(=O)(Nc1ccc(-c2n[nH]c3cc(F)ccc23)cc1)c1cccnc1 [Compound 11a, N-(4-(6-fluoro-1H-indazol-3-yl)phenyl)pyridine-3-sulfonamide]"
,,> 80,,"Nc1ccccc1-c1n[nH]c2cc(F)ccc12 [Compound 8b, 2-(6-fluoro-1H-indazol-3-yl)aniline]"
0.84,0.4 µM and 0.61 µM and 1.5 µM,,,"O=S(=O)(Nc1ccccc1)c1cccc(-c2n[nH]c3cc(F)ccc23)c1 [Compound 14a, 3-(6-fluoro-1H-indazol-3-yl)-N-phenylbenzenesulfonamide]"
0.92,0.59 µM and 0.78 µM and 1.4 µM,,,CS(=O)(=O)c1ccc(NS(=O)(=O)c2cccc(-c3n[nH]c4cc(F)ccc34)c2)cc1 [Compound 15l]

Structure (SMILES),"IC50 [1, 3] [µM]","IC50 [1, 4]","IC50 [2, 5] [µM]","IC50 [2, 6]"
"CC(=O)c1ccc(NS(=O)(=O)c2cccc(-c3n[nH]c4cc(F)ccc34)c2)cc1 [Compound 15n, N-(4-acetylphenyl)-3-(6-fluoro-1H-indazol-3-yl)benzenesulfonamide]",,0.74 µM and 1.3 µM and 1.8 µM,,
